Where “and” joins values, the source holds several entries; their conditions need not be identical. Equal values may be shown once. Read-outs that look alike come from different tables or passages of the source.
What was measured:
hamsters = experiment: Antifertility in hamsters (termination of pregnancy, subcutaneous); format: in vivo, hamster; conditions: Mesocricetus auratus, sc
Procedure: On the 4th day of pregnancy, hamsters were each injected subcutaneously with an aqueous solution of a compound of formula I (prepared by dissolving the compound in a minimum volume of ethanol and diluting to the appropriate volume with 0.9% w/v saline). On the 7th day of pregnancy the hamsters were killed and their uteri were examined.
Alternatively, the hamsters were dosed on 3 consecutive days (the 3rd, 4th and 5th days of pregnancy) and killed on the 12th day of pregnancy.
The dose required for termination of pregnancy in 50% of the hamsters (ED50) was calculated mathematically.

female dog = conditions: in vivo, po, 1 mg/kg
Procedure: (§1) In tests, four female rats and one female dog were each dosed orally with compound A at a rate of 1.0 mg/kg animal body weight. Before administration to the animals the compound was dissolved in a minimum quantity of a 1% w/w solution of Tween 80 emulsifier ("Tween" is a registered Trade Mark) in ethanol, and the resulting solution was diluted with distilled water to a concentration of 0.02% w/w.

female rats = conditions: rat, in vivo, po, 1 mg/kg
Procedure: as §1

[1] = tested on: Lucilia sericata prepupae; experiment: Lucilia pupae, topical treatment of prepupae; format: in vivo
Procedure: Lucilia sericata prepupae (taken from a batch of the insects of which approximately 50% were pupated) in groups of 10 were each treated topically with 1 μl of a solution of a test compound in acetone. Controls were treated with acetone alone. The insects were stored in the dark at 30° C. for 8 days, and then the number of insects which had hatched as normal adult flies, and any other effects, were observed.

[2] = tested on: uterine contraction in rats; experiment: Stimulation of uterine contraction in rats compared with PGE1; format: in vivo, rat; conditions: for Activity (compared with PGE1): intravenous, ratio to PGE1
Procedure: Pregnant anaesthetised rats were treated with the compounds of the invention by the intravenous or intravaginal route and the activity of each compound in stimulating uterine contraction was compared with that of a standard compound, the expensive prostaglandin E1 (PGE1), and expressed as a ratio.

[3] = tested on: houseflies (Musca domestica L.); experiment: Houseflies, injection in dorsal thorax, mortality and egg hatch; format: in vivo; conditions: for % egg hatch: 48 hours; for % mortality: 24 hours, 1440 min
Procedure: Adult houseflies (Musca domestica L.) of mixed sex were injected in the dorsal thorax with 1.0 μl of a solution of a test compound in a mixture of acetone and physiological saline (1:1 v/v). Anaesthesia with carbon dioxide was used, and subsequent holding was at 25° C. A source of honey-water was provided. Fly mortality and oviposition were recorded after 24 hours and egg hatching after 48 hours. Similar, control, experiments were carried out using a mixture of acetone and physiological saline alone.

[4] = tested on: ticks (Ornithodoros moubata Murray); experiment: Ticks, first instar, fed on blood containing test compound; format: in vivo; conditions: 5.0 μg per 0.3 ml blood, 14 days at 30° C.
Procedure: First instar ticks (Ornithodoros moubata Murray) were allowed to engorge through a stretched artificial membrane (Parafilm M) on blood at 37° C. and containing a test compound added in a suitable solvent at a rate of 5.0 μg per 0.3 ml blood. Mortality and moulting were observed after 14 days holding at 30° C.

[5] = tested on: mosquito larvae (Aedes aegypti L.); experiment: Mosquito larvae in water containing test compound; format: in vivo; conditions: 25° C.
Procedure: Mosquito larvae (Aedes aegypti L.), at the late third or early fourth instar stage, were introduced into water containing a small concentration of a test compound, at 25° C. The water also contained 0.4% v/v acetone which had been employed as the vehicle for the introduction of the test compound. The larvae were fed with dried powdered bovine liver after 2 hours. After 24 hours at 25° C. a mortality count was made, and subsequent metamorphosis and emergence as adults were observed after seven days at 25° C., and compared with controls.

[6] = 288 h, dosed 3rd, 4th and 5th days of pregnancy, examined day 12, read-out: ED50 (dose required for termination of pregnancy in 50% of the hamsters)
[7] = 168 h, dosed 4th day of pregnancy, examined day 7, read-out: ED50 (dose required for termination of pregnancy in 50% of the hamsters)
[8] = Musca domestica, 24 h, 0.5 μg/fly
[9] = Musca domestica, 24 h, 0.25 μg/fly
[10] = test 1, 1.0 μg/prepupa, 8 days at 30° C., control 10

## C[C@@H](C/C=C/C(=O)COc1ccccc1)CCCC(C)(C)O [A, (R)-2-hydroxy-2,6-dimethyl-11-phenoxyundec-8-trans-en-10-one]
hamsters; [6]
  ED50: ~2 mg/kg
Female dog
  weight loss: no weight loss
Female rats
  weight loss: no weight loss
[1]; test 3, 1.0 μg/prepupa, control 9
  Number hatched (out of 10): 2 out of 10
[2]
  Activity (compared with PGE1): 3.7
[2]; pervaginal
  times as active as PGE1: over 100 times

## C[C@@H](C/C=C/C(=O)COc1ccccc1Cl)CCCC(C)(C)O [B, (R)-11-(2-chlorophenoxy)-2-hydroxy-2,6-dimethylundec-8-trans-en-10-one]
[2]
  Activity (compared with PGE1): 1.2

## C[C@@H](C/C=C/C(=O)COc1ccc(Cl)cc1)CCCC(C)(C)O [C, (R)-11-(4-chlorophenoxy)-2-hydroxy-2,6-dimethylundec-8-trans-en-10-one]
[2]
  Activity (compared with PGE1): 0.32

## CCCCC(C)(C)C(O)/C=C/C[C@H](C)CCCC(C)(C)O (stereo partly drawn) [Compound T, (6R,10RS)-2,6,11,11-tetramethylpentadec-8-trans-ene-2,10-diol]
hamsters; [7]
  ED50: 2 mg/kg

## C[C@@H](C/C=C/C(=O)CCCc1ccccc1)CCCC(C)(C)O [F, (R)-2-hydroxy-2,6-dimethyl-13-phenyltridec-8-trans-en-10-one]
[2]
  Activity (compared with PGE1): 0.91

## C[C@@H](C/C=C/C(=O)CCc1ccccc1)CCCC(C)(C)O [G, (R)-2-hydroxy-2,6-dimethyl-12-phenyldodec-8-trans-en-10-one]
hamsters; [7]
  ED50: 5 mg/kg
hamsters; [6]
  ED50: 4 mg/kg
[3]; 0.1 μg/fly
  % egg hatch: 100%
[3]; 0.5 μg/fly
  % egg hatch: no eggs
[3]; Musca domestica, 24 h, 0.1 μg/fly
  mortality at 0.1 µg/fly: 60%
[3]; [8]
  mortality at 0.5 µg/fly: 60%
[4]
  % mortality: 0%
  % moulting normally: 0%
[2]
  Activity (compared with PGE1): 0.67

## C[C@@H](C/C=C/C(=O)Cc1ccccc1)CCCC(C)(C)O [I, (R)-2-hydroxy-2,6-dimethyl-11-phenylundec-8-trans-en-10-one]
[2]
  Activity (compared with PGE1): 0.09

## CCCCCC(=O)/C=C/C[C@H](C)CCCC(C)(C)O [J, (R)-2-hydroxy-2,6-dimethylpentadec-8-trans-en-10-one]
[2]
  Activity (compared with PGE1): 0.02

## CCCCC(C)(C)C(=O)/C=C/C[C@H](C)CCCC(C)(C)O [K, (R)-2-hydroxy-2,6,11,11-tetramethylpentadec-8-trans-en-10-one]
hamsters; [6]
  ED50: < 0.5 mg/kg
[2]
  Activity (compared with PGE1): 0.57

## C[C@@H](C/C=C/C(=O)CCc1ccc(Cl)cc1)CCCC(C)(C)O [L, (R)-12-(4-chlorophenyl)-2-hydroxy-2,6-dimethyldodec-8-trans-en-10-one]
[3]; 0.5 μg/fly
  % egg hatch: no eggs
[3]; [8]
  mortality at 0.5 µg/fly: 80%
[4]
  % mortality: 0%
  % moulting normally: 0%

## C[C@@H](C/C=C/C(=O)CCc1cccc(Cl)c1)CCCC(C)(C)O [M, (R)-12-(3-chlorophenyl)-2-hydroxy-2,6-dimethyldodec-8-trans-en-10-one]
[3]; 0.25 μg/fly
  % egg hatch: 100%
[3]; 0.5 μg/fly
  % mortality: 80% and 40%
  % egg hatch: 0%
[3]; [9]
  mortality at 0.25 µg/fly: 30%
[4]
  % mortality: 0%
  % moulting normally: 0%

## C[C@@H](C/C=C/C(=O)CCc1ccccc1Cl)CCCC(C)(C)O [N, (R)-12-(2-chlorophenyl)-2-hydroxy-2,6-dimethyldodec-8-trans-en-10-one]
[3]; 0.25 μg/fly
  % egg hatch: 100%
[3]; 0.5 μg/fly
  % mortality: 60%
  % egg hatch: 100%
[3]; [9]
  mortality at 0.25 µg/fly: 40%
[3]; [8]
  mortality at 0.5 µg/fly: 50%
[4]
  % mortality: 0%
  % moulting normally: 0%

## C[C@@H](C/C=C/C(=O)COc1cccc(Cl)c1)CCCC(C)(C)O [O, (R)-11-(3-chlorophenoxy)-2-hydroxy-2,6-dimethylundec-8-trans-en-10-one]
[2]
  Activity (compared with PGE1): 0.91

## C[C@@H](C/C=C/C(O)COc1ccccc1)CCCC(C)(C)O (stereo partly drawn) [P, (6R,10RS)-2,6-dimethyl-11-phenoxyundec-8-trans-ene-2,10-diol]
[3]; 0.5 μg/fly
  % egg hatch: no eggs
[3]; [8]
  mortality at 0.5 µg/fly: 50%
[4]
  % mortality: 0%
  % moulting normally: 0%
[1]; [10]
  Number hatched (out of 10): 1 out of 10
[2]
  Activity (compared with PGE1): 0.14

## CCCCCC(O)/C=C/C[C@H](C)CCCC(C)(C)O (stereo partly drawn) [Q, (6R,10RS)-2,6-dimethylpentadec-8-trans-ene-2,10-diol]
hamsters; [6]
  ED50: 2 mg/kg
[3]; 0.5 μg/fly
  % egg hatch: no eggs
[3]; [8]
  mortality at 0.5 µg/fly: 70%
[4]
  % mortality: 0%
  % moulting normally: 0%
[1]; [10]
  Number hatched (out of 10): 0 out of 10
[1]; test 2, 0.2 μg/prepupa, control 7
  Number hatched (out of 10): 6 out of 10
[1]; test 2, 0.4 μg/prepupa, control 7
  Number hatched (out of 10): 5 out of 10
[1]; test 2, 0.6 μg/prepupa, control 7
  Number hatched (out of 10): 1 out of 10
[1]; test 2, 0.8 μg/prepupa, control 7
  Number hatched (out of 10): 0 out of 10
[1]; test 2, 1.0 μg/prepupa, 8 days at 30° C., control 7
  Number hatched (out of 10): 2 out of 10
[2]
  Activity (compared with PGE1): 0.05

## C[C@@H](C/C=C/C(O)CCc1ccccc1)CCCC(C)(C)O (stereo partly drawn) [R, (6R,10RS)-2,6-dimethyl-12-phenyldodec-8-trans-ene-2,10-diol]
hamsters; [6]
  ED50: 0.5 mg/kg
[3]; 0.25 μg/fly
  % egg hatch: 100%
[3]; [9]
  mortality at 0.25 µg/fly: 40%
[5]; 0.08 parts per million w/v
  larvae killed within 24 hours: all
[5]; Aedes aegypti, 24 h, 0.04 parts per million, read-out: larvae killed within 24 hours
  mortality at 0.04 µg/mL: ~50%
[4]
  % mortality: 0%
  % moulting normally: 0%
[2]
  Activity (compared with PGE1): 0.14

## C[C@@H](C/C=C/C(O)CCCc1ccccc1)CCCC(C)(C)O (stereo partly drawn) [S, (6R,10RS)-2,6-dimethyl-13-phenyltridec-8-trans-ene-2,10-diol]
[3]; 0.25 μg/fly
  % egg hatch: 100%
[3]; 0.5 μg/fly
  % mortality: 40%
[3]; [9]
  mortality at 0.25 µg/fly: 20%
[3]; [8]
  mortality at 0.5 µg/fly: 30%
[4]
  % mortality: 29%
  % moulting normally: 17%
